Assay results as given in BindingDB's records for doi:10.1186/2191-2858-2-21 (University of The West Indies, 2012).

Tests used:
[1] = molecular target: T1, Cytochrome P450 1A1 (Homo sapiens, UniProt P04798); assay: CYP Inhibition Assay
T1 sequence (P04798 whole entry): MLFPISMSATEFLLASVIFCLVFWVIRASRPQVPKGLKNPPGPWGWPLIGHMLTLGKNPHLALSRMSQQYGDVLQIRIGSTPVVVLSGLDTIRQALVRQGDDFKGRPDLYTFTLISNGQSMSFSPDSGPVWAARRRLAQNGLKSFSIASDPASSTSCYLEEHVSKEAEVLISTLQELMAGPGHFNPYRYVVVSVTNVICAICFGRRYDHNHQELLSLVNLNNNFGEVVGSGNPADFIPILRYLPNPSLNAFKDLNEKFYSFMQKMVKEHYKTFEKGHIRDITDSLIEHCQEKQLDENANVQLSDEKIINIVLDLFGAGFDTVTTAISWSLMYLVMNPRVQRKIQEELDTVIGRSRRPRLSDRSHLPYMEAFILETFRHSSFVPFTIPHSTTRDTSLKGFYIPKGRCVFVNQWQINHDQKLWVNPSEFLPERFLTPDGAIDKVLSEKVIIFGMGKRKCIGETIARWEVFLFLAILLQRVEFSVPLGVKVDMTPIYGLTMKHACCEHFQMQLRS
Experimental: (§1) The test compounds were evaluated for their ability to inhibit the catlytic activity of human CYP1 enzymes by means of high throughput fluorometric detection assay conducted in 96-well microtitre plates.

[2] = molecular target: Cytochrome P450 2C19 (Homo sapiens, UniProt P33261); assay: CYP Inhibition Assay
Experimental: as §1

Cytochrome P450 2C19, sequence (P33261 whole entry): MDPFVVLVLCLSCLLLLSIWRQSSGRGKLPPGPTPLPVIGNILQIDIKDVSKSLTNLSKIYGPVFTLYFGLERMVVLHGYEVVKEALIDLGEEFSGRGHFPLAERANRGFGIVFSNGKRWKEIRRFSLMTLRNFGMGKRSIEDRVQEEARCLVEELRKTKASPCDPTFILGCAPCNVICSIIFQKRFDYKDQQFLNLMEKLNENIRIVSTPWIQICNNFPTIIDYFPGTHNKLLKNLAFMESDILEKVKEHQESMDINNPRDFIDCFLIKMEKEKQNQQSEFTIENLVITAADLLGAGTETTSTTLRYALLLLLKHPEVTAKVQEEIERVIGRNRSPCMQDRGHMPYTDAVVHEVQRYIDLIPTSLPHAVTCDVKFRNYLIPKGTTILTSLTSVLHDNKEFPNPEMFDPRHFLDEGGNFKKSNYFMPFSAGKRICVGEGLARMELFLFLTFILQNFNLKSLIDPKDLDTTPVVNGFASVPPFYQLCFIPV

Compound `CC(C)(O)CCCC1(C)CC(=O)c2cc(O)c(Br)cc2O1` (configuration not stated) [PBQ1] has an IC50 [1] of 390 nM and an IC50 [2] of 80 nM.
